Earlier results in paper PMC11340619 (Redox Biology, 2024).

Tested on: hepatic I/R injury
Conditions: in mice; NRF2 agonist treatment; ref [14],[15]

| SMILES | hepatic I/R injury |
| --- | --- |
| C=C(CC(=O)O)C(=O)O [itaconate] | alleviate hepatic I/R injury in mice |
| C[S+]([O-])CCCCN=C=S (centres unmarked) [sulforaphane] | alleviate hepatic I/R injury in mice |
